Reference: the supplement of paper PMC10307832

Assays:
Assay in all cases: relative viability (nuclei count vs DMSO), 5 days (fraction); higher = more cells survive
[1] = tested on: HCC-366
Method in brief: (§1)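 Relative viability divides the nuclei count in treated wells by that in vehicle wells. Lung cancer cell lines were seeded in 1536-well plates, dosed by pin tool the next day, and fixed and stained after 5 days in one step with final 0.05% Triton X-100, 1% formaldehyde and 1 ug/ml Hoechst. Dosing was a single drug or a fixed anchor-drug dose plus five library-drug doses (not always all listed) in √10 steps, and values are medians of duplicate plates imaged at 4×.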

[2] = tested on: HCC-44
Method in brief: as §1

[3] = tested on: NCI-H1648
Method in brief: as §1

[4] = tested on: NCI-H522
Method in brief: as §1

[5] = tested on: NCI-H1437
Method in brief: as §1

[6] = tested on: IA-LM
Method in brief: as §1

[7] = tested on: NCI-H1703
Method in brief: as §1

Which results are given for `NC(=O)Nc1cc(-c2cccc(F)c2)sc1C(=O)N[C@H]1CCCNC1` [AZD7762] + O=C(CCCCCCC(=O)Nc1ccccc1)NO [Vorinostat] (partner 1 µM)?
relative viability ([1]; first compound 0.01 µM): 0.455; relative viability ([1]; first compound 0.03162 µM): 0.301; relative viability ([1]; first compound 0.1 µM): 0.39; relative viability ([1]; first compound 0.3162 µM): 0.188; relative viability ([1]; first compound 1 µM): 0.104; relative viability ([2]; first compound 0.01 µM): 1.08; relative viability ([2]; first compound 0.03162 µM): 1.11; relative viability ([2]; first compound 0.1 µM): 1.1; relative viability ([2]; first compound 0.3162 µM): 1.1; relative viability ([2]; first compound 1 µM): 1.02; relative viability ([3]; first compound 0.01 µM): 0.735; relative viability ([3]; first compound 0.03162 µM): 0.488; relative viability ([3]; first compound 0.1 µM): 0.45; relative viability ([3]; first compound 0.3162 µM): 0.472; relative viability ([3]; first compound 1 µM): 0.421; relative viability ([4]; first compound 0.01 µM): 0.869; relative viability ([4]; first compound 0.03162 µM): 0.923; relative viability ([4]; first compound 0.1 µM): 0.912; relative viability ([4]; first compound 0.3162 µM): 0.624; relative viability ([4]; first compound 1 µM): 0.783; relative viability ([5]; first compound 0.01 µM): 0.964; relative viability ([5]; first compound 0.03162 µM): 0.85; relative viability ([5]; first compound 0.1 µM): 0.88; relative viability ([5]; first compound 0.3162 µM): 0.639; relative viability ([5]; first compound 1 µM): 0.49; relative viability ([6]; first compound 0.01 µM): 1.04; relative viability ([6]; first compound 0.03162 µM): 0.984; relative viability ([6]; first compound 0.1 µM): 1.04; relative viability ([6]; first compound 0.3162 µM): 0.74; relative viability ([6]; first compound 1 µM): 1.17

How did the relative viability ([1]; first compound 0.005 µM) turn out when `CC1(C)CCC(c2ccc(Cl)cc2)=C(CN2CCN(c3ccc(C(=O)NS(=O)(=O)c4ccc(N[C@H](CCN5CCOCC5)CSc5ccccc5)c(S(=O)(=O)C(F)(F)F)c4)cc3)CC2)C1` [Navitoclax] + CC(=O)Nc1cccc(-n2c(=O)n(C3CC3)c(=O)c3c(Nc4ccc(I)cc4F)n(C)c(=O)c(C)c32)c1 [Trametinib] (partner 0.02 µM) was run?
The relative viability was 0.319.

What about the relative viability ([1]; first compound 0.01581 µM) of the same compound?
Its relative viability is 0.419.

What about the relative viability ([1]; first compound 0.1581 µM) of the same compound?
Its relative viability is 0.351.

And the relative viability ([1]; first compound 0.5 µM)?
The relative viability was 0.288.

And the relative viability ([2]; first compound 0.005 µM)?
Its relative viability is 1.1.

And the relative viability ([2]; first compound 0.01581 µM)?
The relative viability was 1.05.

And the relative viability ([2]; first compound 0.05 µM)?
The relative viability was 0.94.

What about the relative viability ([2]; first compound 0.1581 µM) of the same compound?
The relative viability was 1.05.

What about the relative viability ([2]; first compound 0.5 µM) of the same compound?
The relative viability was 1.11.

What about the relative viability ([3]; first compound 0.005 µM) of the same compound?
Its relative viability is 0.541.

What about the relative viability ([3]; first compound 0.01581 µM) of the same compound?
Its relative viability is 0.427.

What about the relative viability ([3]; first compound 0.1581 µM) of the same compound?
The relative viability was 0.453.

And the relative viability ([3]; first compound 0.5 µM)?
Its relative viability is 0.402.

What about the relative viability ([4]; first compound 0.005 µM) of the same compound?
The relative viability was 0.753.

And the relative viability ([4]; first compound 0.01581 µM)?
Its relative viability is 0.782.

What about the relative viability ([4]; first compound 0.05 µM) of the same compound?
The relative viability was 0.778.

And the relative viability ([4]; first compound 0.1581 µM)?
Its relative viability is 0.627.

What about the relative viability ([4]; first compound 0.5 µM) of the same compound?
Its relative viability is 0.725.

What about the relative viability ([5]; first compound 0.005 µM) of the same compound?
Its relative viability is 0.476.

What about the relative viability ([5]; first compound 0.01581 µM) of the same compound?
Its relative viability is 0.595.

What about the relative viability ([5]; first compound 0.05 µM) of the same compound?
The relative viability was 0.359.

And the relative viability ([5]; first compound 0.1581 µM)?
The relative viability was 0.472.

And the relative viability ([5]; first compound 0.5 µM)?
The relative viability was 0.539.

Which results are given for `CC1(C)CCC(c2ccc(Cl)cc2)=C(CN2CCN(c3ccc(C(=O)NS(=O)(=O)c4ccc(N[C@H](CCN5CCOCC5)CSc5ccccc5)c(S(=O)(=O)C(F)(F)F)c4)cc3)CC2)C1` [Navitoclax] + CC(=O)c1c(C)c2cnc(Nc3ccc(N4CCNCC4)cn3)nc2n(C2CCCC2)c1=O [Palbociclib] (partner 0.5 µM)?
relative viability ([1]; first compound 0.005 µM): 0.355; relative viability ([1]; first compound 0.01581 µM): 0.48; relative viability ([1]; first compound 0.1581 µM): 0.35; relative viability ([1]; first compound 0.5 µM): 0.34; relative viability ([2]; first compound 0.005 µM): 0.968; relative viability ([2]; first compound 0.01581 µM): 0.919; relative viability ([2]; first compound 0.05 µM): 0.947; relative viability ([2]; first compound 0.1581 µM): 0.893; relative viability ([2]; first compound 0.5 µM): 0.956; relative viability ([3]; first compound 0.005 µM): 0.274; relative viability ([3]; first compound 0.01581 µM): 0.269; relative viability ([3]; first compound 0.1581 µM): 0.289; relative viability ([3]; first compound 0.5 µM): 0.328; relative viability ([4]; first compound 0.005 µM): 1.02; relative viability ([4]; first compound 0.01581 µM): 1.05; relative viability ([4]; first compound 0.05 µM): 1.06; relative viability ([4]; first compound 0.1581 µM): 0.735; relative viability ([4]; first compound 0.5 µM): 0.942; relative viability ([5]; first compound 0.005 µM): 0.295; relative viability ([5]; first compound 0.01581 µM): 0.317; relative viability ([5]; first compound 0.05 µM): 0.2; relative viability ([5]; first compound 0.1581 µM): 0.291; relative viability ([5]; first compound 0.5 µM): 0.308

For `CC1(C)CCC(c2ccc(Cl)cc2)=C(CN2CCN(c3ccc(C(=O)NS(=O)(=O)c4ccc(N[C@H](CCN5CCOCC5)CSc5ccccc5)c(S(=O)(=O)C(F)(F)F)c4)cc3)CC2)C1` [Navitoclax] + NC(=O)Nc1cc(-c2cccc(F)c2)sc1C(=O)N[C@H]1CCCNC1 [AZD7762] (partner 0.2 µM), which relative viability ([1]; first compound 0.005 µM) is on record?
Its relative viability is 0.27.

And the relative viability ([1]; first compound 0.01581 µM)?
Its relative viability is 0.296.

What about the relative viability ([1]; first compound 0.1581 µM) of the same compound?
The relative viability was 0.197.

What about the relative viability ([1]; first compound 0.5 µM) of the same compound?
The relative viability was 0.214.

And the relative viability ([2]; first compound 0.005 µM)?
The relative viability was 0.935.

What about the relative viability ([2]; first compound 0.01581 µM) of the same compound?
Its relative viability is 0.957.

What about the relative viability ([2]; first compound 0.05 µM) of the same compound?
The relative viability was 0.961.

What about the relative viability ([2]; first compound 0.1581 µM) of the same compound?
The relative viability was 0.915.

And the relative viability ([2]; first compound 0.5 µM)?
Its relative viability is 0.881.

What about the relative viability ([3]; first compound 0.005 µM) of the same compound?
The relative viability was 0.799.

And the relative viability ([3]; first compound 0.01581 µM)?
Its relative viability is 0.669.

What about the relative viability ([3]; first compound 0.1581 µM) of the same compound?
Its relative viability is 0.667.

What about the relative viability ([3]; first compound 0.5 µM) of the same compound?
Its relative viability is 0.604.

What about the relative viability ([4]; first compound 0.005 µM) of the same compound?
Its relative viability is 0.748.

And the relative viability ([4]; first compound 0.01581 µM)?
Its relative viability is 0.987.

What about the relative viability ([4]; first compound 0.05 µM) of the same compound?
The relative viability was 1.12.

And the relative viability ([4]; first compound 0.1581 µM)?
Its relative viability is 0.832.

What about the relative viability ([4]; first compound 0.5 µM) of the same compound?
The relative viability was 0.9.

And the relative viability ([7]; first compound 0.005 µM)?
Its relative viability is 0.128.

What about the relative viability ([7]; first compound 0.01581 µM) of the same compound?
Its relative viability is 0.161.

And the relative viability ([7]; first compound 0.05 µM)?
The relative viability was 0.149.

And the relative viability ([7]; first compound 0.5 µM)?
Its relative viability is 0.122.

And the relative viability ([5]; first compound 0.005 µM)?
The relative viability was 1.06.

And the relative viability ([5]; first compound 0.01581 µM)?
The relative viability was 1.23.

What about the relative viability ([5]; first compound 0.05 µM) of the same compound?
The relative viability was 1.06.

What about the relative viability ([5]; first compound 0.1581 µM) of the same compound?
The relative viability was 1.08.

And the relative viability ([5]; first compound 0.5 µM)?
The relative viability was 1.05.
